Species: Oryctolagus cuniculus
Experiment: Compound was tested for inhibitory effect on protein biosynthesis in rabbit reticulocyte lysates
Type: functional

Compound | IC50
CC[C@H](C)[C@H]1NC(=O)[C@@H](NC(=O)[C@@H](CC(C)C)N(C)C(=O)C2CCCN2C(=O)[C@H](C)O)[C@@H](C)OC(=O)[C@@H]2Cc3ccccc3CN2C(=O)[C@@H]2CCCN2C(=O)[C@H](CC(C)C)NC(=O)[C@@H](C)C(=O)[C@H](C(C)C)OC(=O)C[C@@H]1O (some centres not stated) | 2.68 µM
CC[C@H](C)[C@H]1NC(=O)[C@@H](NC(=O)[C@@H](CC(C)C)N(C)C(=O)C2CCCN2C(=O)[C@H](C)O)[C@@H](C)OC(=O)[C@H](CC(C)C)N(C)C(=O)[C@@H]2CCCN2C(=O)[C@H](CC(C)C)NC(=O)[C@@H](C)C(=O)[C@H](C(C)C)OC(=O)C[C@@H]1O (some centres not stated) [[N-ME LEU5] DIDEMNIN B] | 9 µM
